In brackets after ≈: the same amount, converted by molar mass.
Tests used:
[1] = DPPH microplate radical scavenging antioxidant assay; assay type: biochemical; conditions: for IC50: DPPH, 30 min, mean ± SD (n = 3)
Procedure: The antioxidant activity of the synthesized compounds was measured in terms of hydrogen-donating or radical scavenging ability using the DPPH microplate-based method. Absorbance measurement was obtained using Microplate/cuvette reader (Spectramax M5, Molecular Devices, California, USA). Reference standard compound ascorbic acid was used as the positive control for this assay at concentrations ranging from 1.563 to 200 μg/mL. Test samples were prepared at a starting concentration of 200 μg/mL after mixing with 100 μl of 0.2 mM DPPH methanolic solution. A series of concentrations were tested for the samples in order to determine the 50% inhibitory concentration (IC50). Samples were incubated with DPPH in the dark for 30 min at room temperature (25° C.). The DPPH solution in methanol was prepared daily and stored in a flask covered with aluminum foil. DPPH radicals have an absorption maximum (λmax) at 515 nm, in which the absorbance values were measured and converted into percentage of antioxidant activity.
Methanolic DPPH solution without antioxidant was applied as control and background control was samples in methanol only. IC50 was determined using Graphpad Prism 7 (Graphpad Software Inc. CA, USA). The percentage inhibition was calculated by using the formula:
The assay was carried out in triplicate and performed as much as possible in an area protected against light. The data points are presented as the mean±standard deviation (SD) (n=3).

trypsin = test: Proteinase inhibitory activity (trypsin/casein); assay type: biochemical; conditions: 250 μg/ml, mean ± SD (n = 3)
Procedure: For proteinase inhibitory activity, the reaction mixture (2 ml) contained 0.06 mg trypsin, 20 mM Tris HCl buffer (pH 7.4) and 1 ml test sample (250 μg/ml for each compound). The mixture was incubated for 5 min and then 1 ml of 0.8% (w/v) casein was added. The mixture was incubated for an additional 20 min. 1 ml of 10% perchloric acid was added to arrest the reaction. The cloudy suspension was centrifuged, and the absorbance of the supernatant was read at 280 nm. Reference standard compound aspirin was used as the positive control for this assay. The experiment was performed in triplicate. Percentage inhibition of […] was calculated by using the following formula:
[formula] where Acontrol is the absorbance of the control reaction and Atest is the absorbance of the control reaction with sample.

Structure (SMILES)	melting point	IC50 [1]	% Inhibition of proteinase activity (trypsin)	antioxidant activity ([1]; overview)
Cc1ccc2oc(=O)c3c(c2c1)OC(N=Cc1ccccc1)=C(C#N)C3c1ccco1 (racemic) [Compound 8b, (±)-2-(benzylideneamino)-4-(furan-2-yl)-9-methyl-5-oxo-4H,5H-pyrano[3,2-c]chromene-3-carbonitrile]	250 to 252 °C			
O=C1O[C@H]([C@@H](O)CO)C(O)=C1O [Ascorbic acid, ascorbic acid, reference compound]		2.83 ± 0.166 µg/mL (≈ 16.1 µM)		
CC(=O)Oc1ccccc1C(=O)O [Aspirin, aspirin, reference compound]			45.83 ± 4.21%	
O=c1oc2ccc(Cl)cc2c(O)c1S(=O)(=O)Nc1ccc(S(=O)(=O)Nc2nccs2)cc1 [Compound 10e, 6-chloro-4-hydroxy-2-oxo-N-(4-(N-(thiazol-2-yl)sulfamoyl)phenyl)-2H-chromene-3-sulfonamide]	215 to 217 °C	71.67 ± 3.231 µg/mL (≈ 139 µM)		
Cc1ccc2oc(=O)c(S(=O)(=O)Nc3ccccc3)c(O)c2c1 [Compound 11b, 4-Hydroxy-6-methyl-2-oxo-N-phenyl-2H-chromene-3-sulfonamide]	324 to 325 °C	19.25 ± 4.171 µg/mL (≈ 58.1 µM)	14.3 ± 2.21%	particularly high antioxidant activity
Cc1ccc2oc(=O)c(S(=O)(=O)Nc3ccc(C(=O)/C=C/c4ccc([N+](=O)[O-])cc4)cc3)c(O)c2c1 [Compound 12b, (E)-4-hydroxy-6-methyl-N-(4-(3-(4-nitrophenyl)acryloyl)phenyl)-2-oxo-2H-chromene-3-sulfonamide]	220 to 222 °C	— ((—): inactive (IC50 > 200 μg/mL))		

Second part, led by results:

melting point	IC50 [1]	% Inhibition of proteinase activity (trypsin)	Structure (SMILES)	antioxidant activity ([1]; overview)
> 300 °C	— ((—): inactive (IC50 > 200 μg/mL))	22.83 ± 4.88%	COc1ccc(/C=C/C(=O)c2ccc(NS(=O)(=O)c3c(O)c4cc(Cl)ccc4oc3=O)cc2)cc1 [Compound 12e, (E)-6-chloro-4-hydroxy-N-(4-(3-(4-methoxyphenyl)acryloyl)phenyl)-2-oxo-2H-chromene-3-sulfonamide]	
> 300 °C	— ((—): inactive (IC50 > 200 μg/mL))	21.7 ± 7.6%	COc1ccc(/C=C/C(=O)c2ccc(NS(=O)(=O)c3c(O)c4cc(C)ccc4oc3=O)cc2)cc1 [Compound 12f, (E)-4-hydroxy-N-(4-(3-(4-methoxyphenyl)acryloyl)phenyl)-6-methyl-2-oxo-2H-chromene-3-sulfonamide]	
